Test systems include A549 NSCLC; DU-145 prostate; NCI/ADR-RES ovarian; RPMI-8226 leukemia; SF-539 CNS; SK-MEL-5 melanoma; SNB-75 CNS; TK-10 renal; UACC-62 melanoma; UO-31 renal.
Holding throughout (assay): NCI tumour cell line growth inhibition, 48 h

“And” between values parts separate entries of the source, which are not always exact repeats. Identical values can stand only once.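 Protocol summary: plate cells (96-well), add compound at 5 concentrations, incubate 48 h, interpolate endpoints linearly. GI50 marks 50% less growth. TGI is the concentration that stops growth completely.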

Regarding `CC[C@@]1(O)C(=O)NCc2c1cc1n(c2=O)Cc2cc3ccccc3nc2-1`, the GI50 was 2370 nM in the experiment with A549 NSCLC; 2280 nM with DU-145 prostate; 2920 nM in the experiment with NCI/ADR-RES ovarian; 2150 nM in the experiment on RPMI-8226 leukemia; 1710 nM in the experiment on SF-539 CNS; 2770 nM in the experiment on SK-MEL-5 melanoma. Moreover, the GI50 in the experiment on SNB-75 CNS is 4220 nM; in the experiment on TK-10 renal, > 100000 nM; with UACC-62 melanoma it was 1870 nM; with UO-31 renal, 1770 nM. The TGI is > 100 µM in the experiment with A549 NSCLC; > 45.8 µM in the experiment with DU-145 prostate; > 48.2 µM with NCI/ADR-RES ovarian; > 43.3 µM in the experiment on RPMI-8226 leukemia; 11 µM in the experiment with SF-539 CNS; 18700 nM with SK-MEL-5 melanoma. Moreover, the TGI was > 28.5 µM in the experiment with SNB-75 CNS, > 100 µM in the experiment with TK-10 renal, > 100 µM with UACC-62 melanoma and 13.1 µM with UO-31 renal.
`Cn1nc(C(F)(F)F)c(-c2ccc(Cl)c(C(F)(F)F)c2)c1-c1ccc(OCc2ccc(Cl)cc2)cc1O`: the GI50 with A549 NSCLC was 1660 nM; with DU-145 prostate, 2030 nM; in the experiment with NCI/ADR-RES ovarian, 1560 nM; in the experiment on RPMI-8226 leukemia, 1980 nM; with SF-539 CNS, 1650 nM; in the experiment with SK-MEL-5 melanoma, 1020 nM. The GI50 in the experiment on SNB-75 CNS was 1450 nM; with TK-10 renal it was 1910 nM; in the experiment on UACC-62 melanoma, 1580 nM; in the experiment with UO-31 renal, 1260 nM. Besides, the TGI worked out at 6.16 µM in the experiment with A549 NSCLC; 7.47 µM in the experiment with DU-145 prostate; 4.99 µM with NCI/ADR-RES ovarian; 7.29 µM in the experiment with RPMI-8226 leukemia; 5.95 µM in the experiment on SF-539 CNS; 2230 nM in the experiment with SK-MEL-5 melanoma. In addition, the TGI came out at 7.54 µM in the experiment with SNB-75 CNS, 7.13 µM with TK-10 renal, 5.8 µM in the experiment on UACC-62 melanoma and 4.39 µM in the experiment on UO-31 renal.
As to `COc1ccc(N2CCN(C(=O)c3ccccc3Nc3ccnc(C(F)(F)F)c3)CC2)cc1`, the GI50 with A549 NSCLC was 61500 nM; in the experiment with DU-145 prostate it was > 100000 nM; in the experiment on NCI/ADR-RES ovarian, 23800 nM; with RPMI-8226 leukemia, 9480 nM; in the experiment on SF-539 CNS it was > 100000 nM; in the experiment with SK-MEL-5 melanoma, 10300 nM. Besides, the GI50 is 50500 nM in the experiment on SNB-75 CNS, 54700 nM in the experiment on TK-10 renal, 30900 nM in the experiment on UACC-62 melanoma and 28000 nM in the experiment on UO-31 renal. The TGI in the experiment with A549 NSCLC is > 100 µM; with DU-145 prostate it was > 100 µM; with NCI/ADR-RES ovarian, > 100 µM; with RPMI-8226 leukemia it was > 100 µM; with SF-539 CNS, > 100 µM; with SK-MEL-5 melanoma it was 29400 nM. Besides, the TGI in the experiment on SNB-75 CNS, with TK-10 renal, with UACC-62 melanoma and in the experiment on UO-31 renal was > 100 µM each time.
As for `C[C@]12O[C@H](C[C@]1(O)CO)n1c3ccccc3c3c4c(c5c6ccccc6n2c5c31)CNC4=O`, the GI50 in the experiment on A549 NSCLC was 176 nM and 191 nM; in the experiment on DU-145 prostate it was 88.1 nM and 110 nM; in the experiment on NCI/ADR-RES ovarian it was 870 nM and 1370 nM; with RPMI-8226 leukemia, 134 nM and 215 nM; with SF-539 CNS it was 114 nM and 84.6 nM; in the experiment with SK-MEL-5 melanoma it was 398 nM and 86.9 nM. The GI50 in the experiment with SNB-75 CNS is 49.2 nM and 85.2 nM; in the experiment on TK-10 renal, 22.3 nM and 18.9 nM; in the experiment with UACC-62 melanoma, 36.6 nM and 40.2 nM; in the experiment with UO-31 renal, 23.8 nM and 28.6 nM. Besides, the TGI with A549 NSCLC was > 6.09 µM and 3.5 µM; in the experiment on DU-145 prostate it was > 10 µM and 10.2 µM; in the experiment on NCI/ADR-RES ovarian, 5.15 µM and 7.26 µM; with RPMI-8226 leukemia, 1.6 µM and 1.75 µM; in the experiment on SF-539 CNS it was 0.889 µM and 0.54 µM; with SK-MEL-5 melanoma, 2060 nM and 1840 nM. The TGI in the experiment on SNB-75 CNS was 0.556 µM and 1.3 µM; with TK-10 renal it was 1.07 µM and 0.744 µM; in the experiment on UACC-62 melanoma, 1.3 µM and 1.15 µM; in the experiment on UO-31 renal it was 1.08 µM and 1.29 µM.
As to `COc1ccc(C(=O)c2cc(OC)c(OC)c(OC)c2)cc1OC(C)=O`, the GI50 was 115 nM in the experiment on A549 NSCLC; 32.4 nM in the experiment with DU-145 prostate; < 15.3 nM in the experiment with NCI/ADR-RES ovarian; 32.4 nM in the experiment with RPMI-8226 leukemia; < 10 nM in the experiment with SF-539 CNS; 32.5 nM with SK-MEL-5 melanoma. Moreover, the GI50 was < 14.5 nM in the experiment on SNB-75 CNS, 59000 nM in the experiment on TK-10 renal, 448 nM in the experiment with UACC-62 melanoma and 195 nM with UO-31 renal. Further, the TGI is > 100 µM in the experiment on A549 NSCLC; > 100 µM with DU-145 prostate; > 100 µM in the experiment with NCI/ADR-RES ovarian; 26.8 µM in the experiment with RPMI-8226 leukemia; 0.0376 µM with SF-539 CNS; 311 nM with SK-MEL-5 melanoma. Also, the TGI in the experiment on SNB-75 CNS, with TK-10 renal, in the experiment on UACC-62 melanoma and with UO-31 renal was > 100 µM in each case.
Take `CC1(C)N=C(N)N=C(N)N1c1cccc(C#N)c1`: the GI50 was 932 nM in the experiment on A549 NSCLC; 6530 nM in the experiment on DU-145 prostate; 75900 nM in the experiment on NCI/ADR-RES ovarian; 62900 nM with RPMI-8226 leukemia; 3740 nM with SF-539 CNS; 8100 nM in the experiment with SK-MEL-5 melanoma. Also, the GI50 in the experiment with SNB-75 CNS was 9030 nM; with TK-10 renal it was 18200 nM; in the experiment on UACC-62 melanoma, 3840 nM; in the experiment with UO-31 renal it was 5900 nM. Also, the TGI was > 100 µM with A549 NSCLC; > 100 µM in the experiment with DU-145 prostate; > 100 µM in the experiment with NCI/ADR-RES ovarian; > 100 µM in the experiment on RPMI-8226 leukemia; > 100 µM in the experiment on SF-539 CNS; > 100000 nM in the experiment on SK-MEL-5 melanoma. Also, the TGI in the experiment on SNB-75 CNS, in the experiment on TK-10 renal, with UACC-62 melanoma and in the experiment with UO-31 renal was > 100 µM in each case.
With `C/C(=C\c1ccc(Cl)cc1)C(C)(C)C(=O)O`, the TGI is > 100 µM in the experiment with A549 NSCLC; > 100 µM in the experiment with DU-145 prostate; > 100 µM with NCI/ADR-RES ovarian; > 100 µM in the experiment on RPMI-8226 leukemia; > 100 µM in the experiment with SF-539 CNS; > 100000 nM with SK-MEL-5 melanoma. Moreover, the TGI with SNB-75 CNS, in the experiment on TK-10 renal, with UACC-62 melanoma and with UO-31 renal was > 100 µM each time.
As to `COc1ccc(-c2ccc(/C=C/C(=O)NO)cc2)cc1`, the GI50 is 317 nM in the experiment on A549 NSCLC; 394 nM in the experiment on DU-145 prostate; 533 nM with NCI/ADR-RES ovarian; 697 nM with RPMI-8226 leukemia; 913 nM in the experiment on SF-539 CNS; 1100 nM in the experiment on SK-MEL-5 melanoma. Also, the GI50 with SNB-75 CNS is 1380 nM; with TK-10 renal it was 1550 nM; with UACC-62 melanoma, 1150 nM; in the experiment on UO-31 renal, 281 nM. For the same compound, the TGI with A549 NSCLC is 6.14 µM; in the experiment on DU-145 prostate, 4.45 µM; in the experiment on NCI/ADR-RES ovarian it was 3.22 µM; in the experiment with RPMI-8226 leukemia it was > 100 µM; in the experiment on SF-539 CNS it was 5.18 µM; in the experiment with SK-MEL-5 melanoma, 3000 nM. Besides, the TGI was 5.06 µM in the experiment with SNB-75 CNS, 21.3 µM with TK-10 renal, 3.43 µM in the experiment on UACC-62 melanoma and 2.14 µM with UO-31 renal.

(Values after PubChem BioAssay (NCI).)
